Test results: paper PMC5713474, “Green route to synthesis of valuable chemical 6-hydroxynicotine from nicotine in tobacco wastes using genetically engineered Agrobacterium tumefaciens S33” (Biotechnology for Biofuels, 2017)

Test system: T1, Hno (6-hydroxynicotine oxidase), recombinant His-tagged
T1 construct: N-terminal His tag (pETDuet-1), E. coli BL21 (DE3); FAD-containing; about 50 kDa on SDS-PAGE
Assay: UV-visible spectrophotometry at […] nm (6-hydroxypseudooxynicotine formation)
Format: biochemical, Agrobacterium tumefaciens
Settings: 37 °C, pH 9.2, 100 mM glycine-NaOH buffer; O2 as electron acceptor; read-out: apparent K m

With `CN1CCC[C@H]1c1ccc(O)nc1` [6-hydroxynicotine] the Km was 67 ± 1 µM.
